pIC50, pKi: −log10 of the molar value.
Experiments:
[1] = target: T1, hCB2 C6.47(257)A mutant receptor (Homo sapiens, UniProt P34972, C257A); assay: Competitive binding assay, hCB2 C6.47; details: for increase in affinity over WT hCB2 receptor / enhancement of ability to displace CP55940 versus WT hCB2: C6.47(257)A vs WT; for pKi: mean (95% CI)
[2] = target: T2, hCB2 C6.47(257)S mutant receptor (Homo sapiens, UniProt P34972, C257S); assay: Competitive binding assay, hCB2 C6.47; details: for increase in affinity over WT hCB2 receptor: C6.47(257)S vs WT; for pKi: mean (95% CI)
[3] = target: T1, hCB2 C6.47(257)A mutant receptor; assay: Affinity-labeling assay, hCB2 C6.47; details: 9 nM AM-841, 1 hr, 30°C, washed
[4] = target: T2, hCB2 C6.47(257)S mutant receptor; assay: Affinity-labeling assay, hCB2 C6.47; details: 9 nM AM-841, 1 hr, 30°C, washed
WT hCB2 receptor [5] = target: T3, WT hCB2 receptor (Homo sapiens, UniProt P34972); assay: Inhibition of forskolin-stimulated cAMP accumulation, WT hCB2 cells; assay type: cell-based; details: read-out: IC50, inhibition of forskolin-stimulated cAMP accumulation; HEK293 cells, 5 μM forskolin, 5 min; mean (95% CI)
[6] = target: T2, hCB2 C6.47(257)S mutant receptor; assay: Inhibition of forskolin-stimulated cAMP accumulation, hCB2 C6.47; assay type: cell-based; details: read-out: IC50, inhibition of forskolin-stimulated cAMP accumulation; HEK293 cells, 5 μM forskolin, 5 min; mean (95% CI)
[7] = target: hCB1 K3.28(192)A mutant receptor (Homo sapiens, UniProt P21554, K192A); assay: Competitive binding assay, hCB1 K3.28; details: radioligand [3H]-CP55940
WT hCB2 receptor [8] = target: T3, WT hCB2 receptor; assay: Affinity-labeling assay
[9] = target: hCB2 C7.38(284)S mutant receptor (Homo sapiens, UniProt P34972, C284S); assay: Affinity-labeling assay, hCB2 C7.38; details: 9 nM AM-841, 1 hr, 30°C, washed
[10] = target: T1, hCB2 C6.47(257)A mutant receptor; assay: Inhibition of forskolin-stimulated cAMP accumulation, hCB2 C6.47; assay type: cell-based; details: read-out: IC50, inhibition of forskolin-stimulated cAMP accumulation; HEK293 cells, 5 μM forskolin, 5 min; mean (95% CI)
[11] = system: C6.47(257)K, C6.47(257)I, C6.47(257)L, C6.47(257)D, and C6.47(257)Y hCB2 receptor mutants; assay: Competitive binding assay, further C6.47; parameters: species or system human; details: radioligand [3H]-CP55940; data not shown
[12] = target: hCB2 C7.42(288)S mutant receptor (Homo sapiens, UniProt P34972, C288S); assay: Affinity-labeling assay, hCB2 C7.42; details: 9 nM AM-841, 1 hr, 30°C, washed
[13] = target: hCB2 K3.28(109)A mutant receptor (Homo sapiens, UniProt P34972, K109A); assay: Competitive binding assay, hCB2 K3.28; details: radioligand [3H]-CP55940; mean (95% CI)
[14] = system: CB2 receptor S7.39A mutant; details: ref Rhee (2002); cited from earlier work
[15] = system: C6.47(257)K, C6.47(257)I, C6.47(257)L, C6.47(257)D or C6.47(257)Y mutant hCB2 receptors; assay: Saturation-binding assay, further C6.47; parameters: species or system human; details: data not shown

T2 sequence (P34972 whole entry C257S): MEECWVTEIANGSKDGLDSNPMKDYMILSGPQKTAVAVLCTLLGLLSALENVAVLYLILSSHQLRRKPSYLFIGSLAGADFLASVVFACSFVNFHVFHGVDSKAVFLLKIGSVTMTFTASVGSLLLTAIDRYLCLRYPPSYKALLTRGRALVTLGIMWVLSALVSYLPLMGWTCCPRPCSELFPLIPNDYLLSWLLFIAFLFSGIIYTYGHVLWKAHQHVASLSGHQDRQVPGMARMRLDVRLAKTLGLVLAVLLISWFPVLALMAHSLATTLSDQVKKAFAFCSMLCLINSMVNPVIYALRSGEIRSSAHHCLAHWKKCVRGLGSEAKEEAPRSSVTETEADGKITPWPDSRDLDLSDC
hCB1 K3.28(192)A mutant receptor, sequence (P21554 whole entry K192A): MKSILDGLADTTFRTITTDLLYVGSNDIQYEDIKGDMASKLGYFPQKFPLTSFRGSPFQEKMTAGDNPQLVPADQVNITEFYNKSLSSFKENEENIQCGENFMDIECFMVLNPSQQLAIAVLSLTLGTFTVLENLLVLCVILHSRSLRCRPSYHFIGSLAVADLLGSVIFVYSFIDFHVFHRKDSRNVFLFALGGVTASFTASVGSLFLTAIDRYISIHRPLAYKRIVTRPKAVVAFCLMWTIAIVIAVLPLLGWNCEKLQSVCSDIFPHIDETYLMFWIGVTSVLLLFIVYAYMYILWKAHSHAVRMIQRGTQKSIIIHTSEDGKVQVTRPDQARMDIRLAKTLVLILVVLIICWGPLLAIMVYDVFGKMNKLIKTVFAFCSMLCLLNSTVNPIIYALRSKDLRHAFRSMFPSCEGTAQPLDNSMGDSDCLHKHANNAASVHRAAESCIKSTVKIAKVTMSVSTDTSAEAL
T1 sequence (P34972 whole entry C257A): as the sequence (P34972 whole entry C257S) above, with S257A counted along it
T3 sequence (P34972 whole entry): as the sequence (P34972 whole entry C257S) above, with S257C counted along it
hCB2 K3.28(109)A mutant receptor, sequence (P34972 whole entry K109A): as the sequence (P34972 whole entry C257S) above, with K109A, S257C counted along it
hCB2 C7.42(288)S mutant receptor, sequence (P34972 whole entry C288S): as the sequence (P34972 whole entry C257S) above, with S257C, C288S counted along it
hCB2 C7.38(284)S mutant receptor, sequence (P34972 whole entry C284S): as the sequence (P34972 whole entry C257S) above, with S257C, C284S counted along it

Q: Which “increase in affinity over WT hCB2 receptor” value ([1]; radioligand [3H]-WIN55212-2) does the source give for `CN1CCCCC1Cn1cc(C(=O)c2ccccc2I)c2ccccc21` (centres unmarked) [AM-2233] here?
A: Its value is “over 11 fold”.

Q: What about the pKi ([1]; radioligand [3H]-WIN55212-2) of the same molecule?
A: Its pKi is 9.30.

Q: And the “increase in affinity over WT hCB2 receptor” value ([2]; radioligand [3H]-WIN55212-2)?
A: The value was “over 11 fold”.

Q: What about the pKi ([2]; radioligand [3H]-WIN55212-2) of the same molecule?
A: The pKi was 9.10.

Q: Which results are given for `CC(C)(CCCCCCN=C=S)c1cc(O)c2c(c1)OC(C)(C)C1CCC(CO)CC21` (single isomer, unassigned; (-)) [AM-841, (−)-7′-isothiocyanato-11-hydroxy-1′,1′-di-methylheptylhexahydrocannabinol]?
A: decrease in [3H]-CP55940 Bmax after AM-841 pretreatment [3]: no distinct decrease; decrease in [3H]-CP55940 Bmax after AM-841 pretreatment [4]: no distinct decrease; pIC50 (WT hCB2 receptor [5]): 10.10; pIC50 [6]: 8.54; Ki [7]: No Specific Binding; enhancement of ability to displace CP55940 versus WT hCB2 ([1]; radioligand [3H]-CP55940): at least 2 fold; pKi ([1]; radioligand [3H]-CP55940): 9.15; increase in affinity over WT hCB2 receptor ([1]; radioligand [3H]-WIN55212-2): 3–6 fold; pKi ([1]; radioligand [3H]-WIN55212-2): 9.15; Bmax for [3H]-CP55940 binding after preincubation (WT hCB2 receptor [8]; 9 nM AM-841, 1 hr, 30°C, then extensive wash-out, control membranes 1.05): 0.22 pmol/mg; decrease in [3H]-CP55940 binding after AM-841 pretreatment (WT hCB2 receptor [8]; 9 nM AM-841, 1 hr, 30°C, washed): ~ 80%; irreversible AM-841 binding (WT hCB2 receptor [8]; data not shown): ~ 80%; decrease in [3H]-CP55940 binding after AM-841 pretreatment [9]: ~ 80%; pKi ([2]; radioligand [3H]-CP55940): 8.77; increase in affinity over WT hCB2 receptor ([2]; radioligand [3H]-WIN55212-2): 3–6 fold; pKi ([2]; radioligand [3H]-WIN55212-2): 8.82; pIC50 [10]: 8.22; specific binding in competitive binding assay [11]: no specific binding; decrease in [3H]-CP55940 binding after AM-841 pretreatment [12]: ~ 80%; pKi [13]: 8.64

Q: Which results are given for `CCCCCCC(C)(C)c1cc(O)c2c(c1)OC(C)(C)[C@@H]1CC[C@@H](CO)C[C@@H]21` [AM-4056]?
A: pIC50 (WT hCB2 receptor [5]): 8.49; pIC50 [6]: 8.05; Ki [7]: No Specific Binding; enhancement of ability to displace CP55940 versus WT hCB2 ([1]; radioligand [3H]-CP55940): at least 2 fold; pKi ([1]; radioligand [3H]-CP55940): 8.99; pKi ([1]; radioligand [3H]-WIN55212-2): 9.30; pKi ([2]; radioligand [3H]-CP55940): 8.82; pKi ([2]; radioligand [3H]-WIN55212-2): 8.92; pIC50 [10]: 8.58; pKi [13]: 8.94

Q: Which “enhancement of ability to displace CP55940 versus WT hCB2” value ([1]; radioligand [3H]-CP55940) does the source give for `CC(C)(CCCCCCBr)c1cc(O)c2c(c1)OC(C)(C)C1CCC(CO)CC21` (centres unmarked) [AM-4043] here?
A: Its value is “at least 2 fold”.

Q: What about the pKi ([1]; radioligand [3H]-CP55940) of the same molecule?
A: Its pKi is 9.06.

Q: And the pKi ([1]; radioligand [3H]-WIN55212-2)?
A: Its pKi is 9.10.

Q: What about the pKi ([2]; radioligand [3H]-CP55940) of the same molecule?
A: Its pKi is 8.82.

Q: What about the pKi ([2]; radioligand [3H]-WIN55212-2) of the same molecule?
A: Its pKi is 8.85.

Q: With `CCCCCCC(C)(C)c1cc(O)c2c(c1)OC(C)(C)[C@@H]1CC[C@@H](CO)C[C@@H]21` [HU-243] as the molecule, how does the “loss of affinity in S7.39A mutant” value [14] read?
A: The value was “over 10 fold”.

Q: Which “specific binding of radioligand” value [15] does the source give for `CCCCCCC(C)(C)c1ccc([C@@H]2C[C@H](O)CC[C@H]2CCCO)c(O)c1` [[^3H]-CP55940] here?
A: The value was “no specific binding”.
